In brackets after ≈: the same amount, converted by molar mass. Counter-ions that a name gives are not always drawn. Like-named read-outs stand apart in the source and are kept apart here.

Usually MIC stands for the smallest concentration in the dilution series that meets the test's criterion for growth inhibition.

The subject of one assay is E. coli TEM 3. Briefly: MIC, agar dilution method. The note with it: Escherichia coli, TEM3, 18 h. For orientation: In agar dilution the substance is mixed into plates at graded concentrations.
Another assay deals with E. coli TEM 7. Briefly: MIC, agar dilution method. The note with it: Escherichia coli, TEM7, 18 h.
In a further assay the test system is K. pneumoniae CTX1. Briefly: MIC, agar dilution method. The note with it: Klebsiella pneumoniae, CTX1, 18 h.
A further assay has as its system E. cloacae P99. The experiment in a line: MIC, agar dilution method. The note with it: Enterobacter cloacae, P99, 18 h.
The next assay deals with E. cloacae 40011. Briefly: MIC, agar dilution method. The settings on record: Enterobacter cloacae, 40011, 18 h.
Another assay concerns E. aerogenes 41004. Briefly: MIC, agar dilution method. The note with it: Klebsiella aerogenes, 41004, 18 h.
Another assay has as its system M. morganii 36010. Briefly: MIC, agar dilution method. The settings on record: Morganella morganii, 36010, 18 h.
The next assay relates to M. morganii 36014. Briefly: MIC, agar dilution method. The settings on record: Morganella morganii, 36014, 18 h.
In the next assay the test system is P. aeruginosa 46220 DR-2. The experiment in a line: MIC, agar dilution method. The settings on record: Pseudomonas aeruginosa, 46220DR2, 18 h, read-out: MIC Ceftazidime (Alone).
A further assay relates to E. aerogenes 41003. The experiment in a line: MIC, agar dilution method. The settings on record: Klebsiella aerogenes, 41003, 18 h, read-out: MIC Ceftazidime (Alone).
The test system of another assay is P. aeruginosa L 46003. The experiment in a line: MIC, agar dilution method. The settings on record: Pseudomonas aeruginosa, L46003, 18 h, read-out: MIC Ceftazidime (Alone).
The test system of another assay is E. cloacae E. 40009. The experiment in a line: MIC, agar dilution method. The settings on record: Enterobacter cloacae, E.40009, 18 h, read-out: MIC Ceftazidime (Alone).
The next assay relates to E. aerogenes 41006. The experiment in a line: MIC, agar dilution method. The settings on record: Klebsiella aerogenes, 41006, 18 h, read-out: MIC Ceftazidime (Alone).
The target of another assay is T1, TEM-1 (Escherichia coli, UniProt P62593).
T1 construct: TEM-1 (isolated from E. coli); endogenous in cells; host or cells: E. coli (enzyme isolated from the bacterium)
T1 sequence (P62593 24-286 limits assumed): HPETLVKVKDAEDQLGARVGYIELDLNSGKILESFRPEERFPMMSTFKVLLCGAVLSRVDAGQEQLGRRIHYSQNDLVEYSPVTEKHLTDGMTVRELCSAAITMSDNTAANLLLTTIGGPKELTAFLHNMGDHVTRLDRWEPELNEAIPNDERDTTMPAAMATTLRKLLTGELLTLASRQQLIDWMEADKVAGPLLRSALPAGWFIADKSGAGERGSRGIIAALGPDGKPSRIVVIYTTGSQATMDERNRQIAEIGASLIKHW
Briefly: β-lactamase inhibitory activity, spectrophotometric rate assay with nitrocefin. The settings on record: TEM-1 isolated from E. coli; nitrocefin substrate; read-out: 50% Inhibitory conc. TEM-1. Type of assay: biochemical. As to the method:
(§1) The inhibitory activities of present compounds against TEM-1 (isolated from E. coli), CTX-1 (isolated from K. pneumoniae), cephalosporinase (isolated from P. aeruginoase 46012) was measured by spectrophotometric rate assay using […] and using nitrocefin as a substrate [J. Antimicrob. Chemother., 28, pp. 775-776 (1991)].

In the next assay the target is T2, cephalosporinase (Pseudomonas aeruginosa, UniProt P24735).
T2 construct: nitrocefin spectrophotometric assay
T2 sequence (P24735 27-397): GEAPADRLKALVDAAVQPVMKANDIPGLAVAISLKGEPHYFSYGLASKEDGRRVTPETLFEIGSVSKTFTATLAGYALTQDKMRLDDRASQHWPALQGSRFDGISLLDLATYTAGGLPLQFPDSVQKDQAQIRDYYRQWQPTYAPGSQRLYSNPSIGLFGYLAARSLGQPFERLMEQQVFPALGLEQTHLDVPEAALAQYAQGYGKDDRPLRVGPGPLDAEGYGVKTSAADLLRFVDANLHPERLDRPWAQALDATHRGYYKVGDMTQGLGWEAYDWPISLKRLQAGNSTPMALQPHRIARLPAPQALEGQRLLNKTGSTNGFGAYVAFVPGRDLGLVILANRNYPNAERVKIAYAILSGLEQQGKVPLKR
The description is as above. Format: biochemical. The note with it: cephalosporinase isolated from P. aeruginoase 46012; nitrocefin substrate; read-out: 50% Inhibitory conc. Cephalosporinase. The method, then:
as §1

A further assay relates to S. aureus 1628. Briefly: MIC, agar dilution method. The note with it: Staphylococcus aureus, 1628, 18 h, read-out: MIC Piperacillin Alone.
The test system of the next assay is S. aureus 54K. Briefly: MIC, agar dilution method. The note with it: Staphylococcus aureus, 18 h, read-out: MIC Piperacillin Alone.
A further assay relates to S. aureus 80K. Briefly: MIC, agar dilution method. The note with it: Staphylococcus aureus, 18 h, read-out: MIC Piperacillin Alone.
In the next assay the test system is E. coli TEM 1. The experiment in a line: MIC, agar dilution method. The settings on record: Escherichia coli, TEM1, 18 h, read-out: MIC Piperacillin Alone.
The subject of a further assay is E. coli OXA 1. The experiment in a line: MIC, agar dilution method. The note with it: Escherichia coli, OXA1, 18 h, read-out: MIC Piperacillin Alone.
The next assay deals with E. coli OXA 3. The experiment in a line: MIC, agar dilution method. The settings on record: Escherichia coli, OXA3, 18 h, read-out: MIC Piperacillin Alone.
A further assay relates to E. coli SHV 1. Briefly: MIC, agar dilution method. The note with it: Escherichia coli, SHV1, 18 h, read-out: MIC Piperacillin Alone.
Another assay deals with K. pneumoniae 336L. Briefly: MIC, agar dilution method. The note with it: Klebsiella pneumoniae, 18 h, read-out: MIC Piperacillin Alone.
A further assay concerns S. marcescens 200L. The experiment in a line: MIC, agar dilution method. The note with it: Serratia marcescens, 18 h, read-out: MIC Piperacillin Alone.
For a further assay, the system named is P. vulgaris CT106. Briefly: MIC, agar dilution method. The note with it: Proteus vulgaris, CT106, 18 h, read-out: MIC Piperacillin Alone.
For another assay, the system named is C. freundii 2046E. The experiment in a line: MIC, agar dilution method. The note with it: Citrobacter freundii, 18 h, read-out: MIC Piperacillin Alone.
The subject of a further assay is E. cloacae 40015. The experiment in a line: MIC, agar dilution method. The settings on record: Enterobacter cloacae, 40015, 18 h, read-out: MIC Piperacillin Alone.
The test system of another assay is E. cloacae E. 4009. Briefly: MIC, agar dilution method. The note with it: Enterobacter cloacae, E.4009, 18 h, read-out: MIC Piperacillin Alone.
The subject of a further assay is E. aerogenes. The experiment in a line: MIC, agar dilution method. The note with it: Klebsiella aerogenes, 18 h, read-out: MIC Piperacillin Alone.
For another assay, the system named is P. aeruginosa L 46007. The experiment in a line: MIC, agar dilution method. The note with it: Pseudomonas aeruginosa, L46007, 18 h, read-out: MIC Piperacillin Alone.
A further assay relates to A. calcoaceticus 553L. Briefly: MIC, agar dilution method. The note with it: Acinetobacter calcoaceticus, 18 h, read-out: MIC Piperacillin Alone.
[1] abbreviates: read-out: MIC Ceftazidime (Alone).
Setting [2] is: read-out: MIC Piperacillin Alone.

Turning to `CC(C)(O/N=C(\C(=O)N[C@@H]1C(=O)N2C(C(=O)[O-])=C(C[n+]3ccccc3)CS[C@H]12)c1csc(N)n1)C(=O)O` [Ceftazidime, ceftazidime], the MIC in the assay on E. coli TEM 3 (setting [1]) amounted to 25 µg/mL (≈ 45.7 µM); with E. coli TEM 7 (setting [1]), 25 µg/mL (≈ 45.7 µM); in the assay on K. pneumoniae CTX1 (setting [1]) it was 100 µg/mL (≈ 183 µM); in the assay with E. cloacae P99 (setting [1]) it was 100 µg/mL (≈ 183 µM); in the assay with E. cloacae 40011 (setting [1]), 50 µg/mL (≈ 91.5 µM); in the assay on E. aerogenes 41004 (setting [1]), 25 µg/mL (≈ 45.7 µM). Further, the MIC amounted to 200 µg/mL (≈ 366 µM) in the assay on M. morganii 36010 (setting [1]); 25 µg/mL (≈ 45.7 µM) in the assay on M. morganii 36014 (setting [1]); 25 µg/mL (≈ 45.7 µM) in the assay on P. aeruginosa 46220 DR-2; 25 µg/mL (≈ 45.7 µM) with E. aerogenes 41003; 200 µg/mL (≈ 366 µM) in the assay with P. aeruginosa L 46003; 100 µg/mL (≈ 183 µM) with E. cloacae E. 40009. Moreover, the MIC with E. aerogenes 41006 turned out to be 100 µg/mL (≈ 183 µM).

Regarding `CON=C[C@@]1(C)[C@H](C(=O)O)N2C(=O)C[C@H]2S1(=O)=O` [Compound 3, sodium (2S, 3R, 5R)-3-formyl-3-methyl-7-oxo-4-thia-1-azabicyclo[3.2.0]heptane-2-carboxylate, 3^1-(O-methyloxime), 4,4-dioxide], the IC50 at TEM-1 amounted to 0.3 µM; on cephalosporinase, 1.9 µM.

As to `C[C@]1(C=NO)[C@H](C(=O)O)N2C(=O)C[C@H]2S1(=O)=O` [Compound 5, sodium (2S, 3R, 5R)-3-formyl-3-methyl-7-oxo-4-thia-1-azabicyclo[3.2.0]heptane-2-carboxylate, 3^1-(hydroxyloxime), 4,4-dioxide], the results for the IC50 at TEM-1 and on cephalosporinase were 0.58 µM and 7 µM, respectively.

For the molecule `CCCON=C[C@@]1(C)[C@H](C(=O)O)N2C(=O)C[C@H]2S1(=O)=O` [Compound 8, sodium (2S, 3R, 5R)-3-formyl-3-methyl-7-oxo-4-thia-1-azabicyclo[3.2.0]heptane-2-carboxylate, 3^1-(O-propyloxime), 4,4-dioxide], the IC50 is 0.1 µM at TEM-1 and 1 µM on cephalosporinase.

For the molecule `CCON=C[C@@]1(C)[C@H](C(=O)O)N2C(=O)C[C@H]2S1(=O)=O` [Compound 10, sodium (2S, 3R, 5R]-3-formyl-3-methyl-7-oxo-4-thia-1-azabicyclo[3.2.0]heptane-2-carboxylate, 3^1-(O-ethyloxime), 4,4-dioxide], the IC50 was 0.5 µM at TEM-1 and 1 µM on cephalosporinase.

As for `C[C@]1(C=NOCC(=O)O)[C@H](C(=O)O)N2C(=O)C[C@H]2S1(=O)=O` [Compound 28, (2S, 3R, 5R)-3-formyl-3-methyl-7-oxo-4-thia-1-azabicyclo[3.2.0]heptane-2-carboxylicacid, 3^1-[O-(carboxymethyl)oxime], disodium salt, 4,4-dioxide], the IC50 is 0.0048 µM on TEM-1 and 1 µM on cephalosporinase.

As for `CC(=O)NN=C[C@@]1(C)[C@H](C(=O)O)N2C(=O)C[C@H]2S1(=O)=O` [Compound 38, sodium (2S, 3R, 5R)-3-formyl-3-methyl-7-oxo-4-thia-1-azabicyclo[3.2.0]heptane-2-carboxylate, 3^1-(acetylhydrazone), 4,4-dioxide], the IC50 on TEM-1 worked out at 0.0014 µM; on cephalosporinase it was 0.6 µM.

For the molecule `CCN1CCN(C(=O)N[C@@H](C(=O)N[C@@H]2C(=O)N3[C@@H]2SC(C)(C)[C@@H]3C(=O)O)c2ccccc2)C(=O)C1=O` [Piperacillin, piperacillin], the MIC in the assay with S. aureus 1628 came out at 400 µg/mL (≈ 773 µM); in the assay with S. aureus 54K, 12.5 µg/mL (≈ 24.2 µM); in the assay on S. aureus 80K, 12.5 µg/mL (≈ 24.2 µM); with E. coli TEM 1, 400 µg/mL (≈ 773 µM); with E. coli TEM 3 (setting [2]) it was 100 µg/mL (≈ 193 µM); in the assay on E. coli TEM 7 (setting [2]) it was 100 µg/mL (≈ 193 µM). Also, the MIC with E. coli OXA 1 was 25 µg/mL (≈ 48.3 µM); in the assay with E. coli OXA 3 it was 3.13 µg/mL (≈ 6.05 µM); with E. coli SHV 1, 50 µg/mL (≈ 96.6 µM); in the assay with K. pneumoniae 336L, 200 µg/mL (≈ 386 µM); in the assay with K. pneumoniae CTX1 (setting [2]) it was more than 40 µg/mL; in the assay on S. marcescens 200L, 100 µg/mL (≈ 193 µM). Moreover, the MIC is 400 µg/mL (≈ 773 µM) in the assay with P. vulgaris CT106; 100 µg/mL (≈ 193 µM) in the assay on C. freundii 2046E; 200 µg/mL (≈ 386 µM) in the assay on E. cloacae P99 (setting [2]); 50 µg/mL (≈ 96.6 µM) in the assay on E. cloacae 40011 (setting [2]); 50 µg/mL (≈ 96.6 µM) in the assay on E. cloacae 40015; 100 µg/mL (≈ 193 µM) in the assay on E. cloacae E. 4009. The MIC in the assay on E. aerogenes was 25 µg/mL (≈ 48.3 µM); in the assay on E. aerogenes 41004 (setting [2]) it was 25 µg/mL (≈ 48.3 µM); in the assay on P. aeruginosa L 46007 it was 100 µg/mL (≈ 193 µM); in the assay on M. morganii 36010 (setting [2]) it was 200 µg/mL (≈ 386 µM); with M. morganii 36014 (setting [2]) it was 50 µg/mL (≈ 96.6 µM); with A. calcoaceticus 553L, more than 400 µg/mL.

The record behind these values is patent US5686441A, “Penam sulfones as β-lactamase inhibitors” (Syphar Laboratories, Inc., priority 1995, dated 1997).
